Data from patent US20260198493A1, “HYDRAZIDE COMPOUND AND AGRICULTURAL/HORTICULTURAL FUNGICIDE” (Nippon Soda Co., Ltd., priority 2022, published 2026).

Assays:
Botrytis cinerea [1] = test: Control test of cucumber gray mold (sprayed young cucumber seedlings); format: in vivo; conditions: 96 h, four days after inoculation; for pest or weed control at 25 ppm: 25 ppm by mass spray; for pest or weed control at 125 ppm: 125 ppm by mass spray
Protocol: Then, the drug liquid was sprayed onto young cucumber seedlings cultivated in a nursery pot (variety “Jihai”-based, cotyledon stage), and then air-dried. […] They were left still in a moist room at 20° C. Four days after inoculation, leaves of the young cucumber seedlings were visually observed, and the control value was calculated from the lesion area ratio in accordance with the following equation. [formula]

Colletotrichum acutatum = test: Fungicidal effect test against fungi causing apple anthracnose; conditions: 96 h, read-out: growth inhibition ratio
Fusarium graminearum = test: microbe, parasite or virus in culture; format: cell-based; conditions: 96 h, read-out: growth inhibition ratio
Glomerella cingulata = test: Fungicidal effect test against fungi causing grape ripe rot disease; conditions: Colletotrichum gloeosporioides, 72 h, read-out: growth inhibition ratio
Venturia inaequalis = test: Control test of apple scab disease (sprayed young apple seedlings); format: in vivo; conditions: 125 ppm by mass spray, 12 to 14 days after inoculation
[2] = tested on: Erysiphe graminis f.sp.tritici; test: Control test of wheat powdery mildew disease (sprayed young wheat seedlings); format: in vivo; conditions: Blumeria graminis, 144 h, 125 ppm by mass spray, six days after inoculation
Botrytis cinerea [3] = format: cell-based; conditions: 120 h, 25 ppm by volume, Vogel medium, 20° C., five days, dark, read-out: growth inhibition ratio

COC(=O)N(Cc1ccc(C)cc1C)NC(=O)c1c(C)cnnc1Oc1cccc(C2CC2)c1F [b-228]
≥ 75%: pest or weed control at 25 ppm (Botrytis cinerea [1]) | pest or weed control at 125 ppm (Botrytis cinerea [1]) | inhibition of growth at 25 ppm (Colletotrichum acutatum) | inhibition of growth at 25 ppm (Fusarium graminearum) | inhibition of growth at 25 ppm (Glomerella cingulata) | pest or weed control at 125 ppm (Venturia inaequalis) | pest or weed control at 125 ppm [2] | inhibition of growth at 25 ppm (Botrytis cinerea [3])

COC(=O)N(Cc1ccc(C)cc1C)NC(=O)c1cc(C)ncc1Oc1cccc(Br)c1F [b-88]
≥ 75%: pest or weed control at 25 ppm (Botrytis cinerea [1]) | pest or weed control at 125 ppm (Botrytis cinerea [1]) | inhibition of growth at 25 ppm (Colletotrichum acutatum) | inhibition of growth at 25 ppm (Fusarium graminearum) | inhibition of growth at 25 ppm (Glomerella cingulata) | pest or weed control at 125 ppm (Venturia inaequalis) | pest or weed control at 125 ppm [2] | inhibition of growth at 25 ppm (Botrytis cinerea [3])

COC(=O)N(Cc1ccc(C)cc1Cl)NC(=O)c1cc(C)nnc1Oc1cccc(C2CC2)c1F [b-46]
≥ 75%: pest or weed control at 25 ppm (Botrytis cinerea [1]) | pest or weed control at 125 ppm (Botrytis cinerea [1]) | inhibition of growth at 25 ppm (Colletotrichum acutatum) | inhibition of growth at 25 ppm (Fusarium graminearum) | inhibition of growth at 25 ppm (Glomerella cingulata) | pest or weed control at 125 ppm (Venturia inaequalis) | pest or weed control at 125 ppm [2] | inhibition of growth at 25 ppm (Botrytis cinerea [3])

CCc1cncc(Oc2cccc(C3CC3)c2F)c1C(=O)NN(Cc1ccc(C)cc1C)C(=O)OC [b-212]
≥ 75%: pest or weed control at 25 ppm (Botrytis cinerea [1]) | pest or weed control at 125 ppm (Botrytis cinerea [1]) | inhibition of growth at 25 ppm (Colletotrichum acutatum) | inhibition of growth at 25 ppm (Fusarium graminearum) | inhibition of growth at 25 ppm (Glomerella cingulata) | pest or weed control at 125 ppm (Venturia inaequalis) | pest or weed control at 125 ppm [2] | inhibition of growth at 25 ppm (Botrytis cinerea [3])

Cc1ccc(CN(NC(=O)c2cc(C)nnc2Oc2cccc(C3CC3)c2F)C(=O)OC2CC2)c(C)c1 [b-184, Cyclopropyl 2-(3-(3-cyclopropyl-2-fluorophenoxy)-6-methylpyridazine-4-carbonyl)-1-(2,4-dimethylbenzyl)hydrazine-1-carboxylate]
≥ 75%: pest or weed control at 25 ppm (Botrytis cinerea [1]) | pest or weed control at 125 ppm (Botrytis cinerea [1]) | inhibition of growth at 25 ppm (Colletotrichum acutatum) | inhibition of growth at 25 ppm (Fusarium graminearum) | inhibition of growth at 25 ppm (Glomerella cingulata) | pest or weed control at 125 ppm (Venturia inaequalis) | pest or weed control at 125 ppm [2] | inhibition of growth at 25 ppm (Botrytis cinerea [3])

Cc1ccc(CN(NC(=O)c2cc(C)nnc2Oc2cccc(C3CC3)c2F)C(=O)OC(C)(C)C)c(C)c1 [b-22]
≥ 75%: pest or weed control at 25 ppm (Botrytis cinerea [1]) | pest or weed control at 125 ppm (Botrytis cinerea [1]) | inhibition of growth at 25 ppm (Colletotrichum acutatum) | inhibition of growth at 25 ppm (Fusarium graminearum) | inhibition of growth at 25 ppm (Glomerella cingulata) | pest or weed control at 125 ppm (Venturia inaequalis) | pest or weed control at 125 ppm [2] | inhibition of growth at 25 ppm (Botrytis cinerea [3])

COC(=O)N(Cc1ccc(C)cc1C)NC(=O)c1cc(Cl)nnc1Oc1cccc(C2CC2)c1F [b-28]
≥ 75%: pest or weed control at 25 ppm (Botrytis cinerea [1]) | pest or weed control at 125 ppm (Botrytis cinerea [1]) | inhibition of growth at 25 ppm (Colletotrichum acutatum) | inhibition of growth at 25 ppm (Fusarium graminearum) | inhibition of growth at 25 ppm (Glomerella cingulata) | pest or weed control at 125 ppm (Venturia inaequalis) | pest or weed control at 125 ppm [2] | inhibition of growth at 25 ppm (Botrytis cinerea [3])
